Consider 17 compounds from patent publication US12590106B2, “Spiromacrocyclic orexin 2 receptor agonists” (H. Lundbeck A/S, priority 2023, dated 2026).

By EC50 is commonly meant the concentration that produces a half-maximal response. As a reminder, the Emax is the maximal effect, on the per cent scale that the assay sets.

The target of this assay is T1, human Ox2R (Homo sapiens, UniProt O43614).
T1 construct: The gene encoding hOx2R was subcloned into the expression plasmid pcDNA5/FRT/TO; expressed in transfected cells; host or cells: CHO Flp-In cells (pcDNA5/FRT/TO with pOG44 Flp recombinase vector, hygromycin B selection)
T1 sequence (O43614 1-444): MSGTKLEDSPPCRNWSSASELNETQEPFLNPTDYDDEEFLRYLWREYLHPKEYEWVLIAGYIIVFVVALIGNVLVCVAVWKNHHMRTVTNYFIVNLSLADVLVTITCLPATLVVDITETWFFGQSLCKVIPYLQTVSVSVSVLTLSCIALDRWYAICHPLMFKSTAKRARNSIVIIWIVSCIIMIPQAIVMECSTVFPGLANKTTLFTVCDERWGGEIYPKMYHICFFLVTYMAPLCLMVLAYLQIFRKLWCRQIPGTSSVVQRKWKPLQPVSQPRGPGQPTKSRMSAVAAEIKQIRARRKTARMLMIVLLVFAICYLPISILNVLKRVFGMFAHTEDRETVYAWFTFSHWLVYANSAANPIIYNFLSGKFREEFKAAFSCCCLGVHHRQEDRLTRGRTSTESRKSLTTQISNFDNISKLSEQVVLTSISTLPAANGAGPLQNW
In words: Measurement of OX2R agonist activity (cell-based calcium release assay). Particulars: hOx2R-CHO Flp-In cells, n≥2 tests; for EC50: intracellular calcium, read-out: EC50; for Emax: normalized to assay buffer (0%) and 10 μM Danavorexton (100%), read-out: Emax (%). The source says:
Measurement of OX2R Agonist Activity
The Ox2R has a broad signaling profile and couple to a range of different Gα-proteins. The cell-based calcium release assay is primarily assessing signaling through the Gαq signaling pathway, which promotes calcium mobilization via inositol triphosphate production upon activation of Ox2R.
A CHO Flp-In cell-line stably expressing the human Ox2R (hOx2R-CHO Flp-In) was established as follows: The gene encoding hOx2R was subcloned into the expression plasmid pcDNA5/FRT/TO and then transfected into CHO Flp-In cells together with the Flp recombinase vector, pOG44. Cells were cultured in growth medium: Ham's F12 (Gibco), 10% fetal bovine serum (Gibco) and 100 U/mL penicillin-streptomycin (Gibco) supplemented with hygromycin B (Thermo Fisher Scientific) as selection marker at 37° C. in the presence of 5% CO2.
To prepare the hOx2R-CHO FlpIn cells for calcium release assay, the cells were suspended in growth medium and seeded in black, clear-bottomed 384-well plates (Corning) at 10,000 cells/well. The plated cells were grown overnight at 37° C. and 5% CO2. The following day, the media was removed, and the cells were incubated with assay buffer (HBSS with 20 mM HEPES, pH 7.4) containing 2.5 mM probenecid (Thermo Fisher Scientific), 10 mM CaCl2, 0.1% pluronic F68 (Gibco) and 1× calcium-4 dye (Molecular Devices) for 1 h at 37° C. and 5% CO2. After incubation, cells were allowed to equilibrate at room temperature for 15 minutes and then loaded into FDSS7000Ex system (Hamamatsu Photonics) together with a plate containing test compounds serially diluted in assay buffer. Cells were stimulated with test compounds (online injection) and the agonist activity was determined as an increase in intracellular calcium concentration measured from the ratio of fluorescence emission at 542 nm by excitation at 480 nm. The agonist response for each applied concentration was assessed as the ratio: maximum fluorescence/average pre-stimulated fluorescence and was normalized to responses from assay buffer alone (0% response) and 10 μM Danavorexton (100% response). EC50 and Emax values were calculated from concentration-response curves by using Genedata Screener software.

On to `CNS(=O)(=O)N[C@H]1CC[C@@]2(Cc3ccc(F)c(c3)-c3ccccc3OCc3coc2n3)C1` [Example 12, (1′S,14R)-19-fluoro-N-(methylsulfamoyl)spiro[8,12-dioxa-21-azatetracyclo[14.3.1.110,13.02,7]henicosa-1(19),2,4,6,10,13(21),16(20),17-octaene-14,3′-cyclopentane]-1′-amine], for which the EC50 is 0.19 nM and the Emax was 100%.
In the same order, the values of `CN(C)S(=O)(=O)N[C@H]1CC[C@@]2(Cc3ccc(F)c(c3)-c3ccccc3OCc3coc2n3)C1` [Example 13, (3′S,14R)-3′-(dimethylsulfamoylamino)-19-fluoro-spiro[8,12-dioxa-21-azatetracyclo[14.3.1.110,13.02,7]henicosa-1(19),2,4,6,10,13(21),16(20),17-octaene-14,1′-cyclopentane]] are 0.28 nM and 95%.
Consider `CS(=O)(=O)N[C@H]1CC[C@@]2(Cc3ccc(F)c(c3)-c3ccc(F)c(F)c3OCc3coc2n3)C1` [Example 14, N-[(1′S,14R)-5,6,19-trifluorospiro[8,12-dioxa-21-azatetracyclo[14.3.1.110,13.02,7]henicosa-1(19),2,4,6,10,13(21),16(20),17-octaene-14,3′-cyclopentane]-1′-yl]methanesulfonamide], for which the EC50 worked out at 0.62 nM and the Emax stood at 97%.
In the same order, the values of `CS(=O)(=O)N[C@H]1CC[C@@]2(Cc3ccc(F)c(c3)-c3ccc(F)cc3OCc3coc2n3)C1` [Example 15, N-[(1′S,14R)-5,19-difluorospiro[8,12-dioxa-21-azatetracyclo[14.3.1.110,13.02,7]henicosa-1(19),2,4,6,10,13(21),16(20),17-octaene-14,3′-cyclopentane]-1′-yl]methanesulfonamide] are 8.1 nM and 98%.
As to `CS(=O)(=O)N[C@H]1CC[C@@]2(Cc3cc(ccc3F)-c3cccc(F)c3OCc3coc2n3)C1` [Example 17, N-[(1′S,14R)-6,17-difluorospiro[8,12-dioxa-21-azatetracyclo[14.3.1.110,13.02,7]henicosa-1(19),2,4,6,10,13(21),16(20),17-octaene-14,3′-cyclopentane]-1′-yl]methanesulfonamide], the EC50 was found to be 0.22 nM and the Emax stood at 96%.
In the same order, the values of `CS(=O)(=O)N[C@H]1CC[C@@]2(Cc3cc(c(F)cc3F)-c3ccccc3OCc3coc2n3)C1` [Example 18, N-[(1′S,14R)-17,19-difluorospiro[8,12-dioxa-21-azatetracyclo[14.3.1.110,13.02,7]henicosa-1(19),2,4,6,10,13(21),16(20),17-octaene-14,3′-cyclopentane]-1′-yl]methanesulfonamide] are 0.19 nM and 95%.
In the same order, the values of `CS(=O)(=O)N[C@H]1CC[C@@]2(Cc3ccnc(c3)-c3cccc(F)c3OCc3coc2n3)C1` [Example 19, N-[(1′S,14R)-6-fluorospiro[8,12-dioxa-19,21-diazatetracyclo[14.3.1.110,13.02,7]henicosa-1(19),2,4,6,10,13(21),16(20),17-octaene-14,3′-cyclopentane]-1′-yl]methanesulfonamide] are 35 nM and 100%.
For `CS(=O)(=O)N[C@H]1CC[C@@]2(Cc3ccc(F)c(c3)-c3cccc(Cl)c3OCc3coc2n3)C1` [Example 20, N-[(1′S,14R)-6-chloro-19-fluoro-spiro[8,12-dioxa-21-azatetracyclo[14.3.1.110,13.02,7]henicosa-1(19),2,4,6,10,13(21),16(20),17-octaene-14,3′-cyclopentane]-1′-yl]methanesulfonamide], the EC50 stood at 0.33 nM and the Emax turned out to be 97%.
On the same counts, the results for `Cc1ccc2cc1-c1cccc(F)c1OCc1coc(n1)[C@]1(CC[C@H](NS(C)(=O)=O)C1)C2` [Example 22, N-[(1′S,14R)-6-fluoro-19-methyl-spiro[8,12-dioxa-21-azatetracyclo[14.3.1.110,13.02,7]henicosa-1(19),2,4,6,10,13(21),16(20),17-octaene-14,3′-cyclopentane]-1′-yl]methanesulfonamide] are 0.82 nM and 96%.
In the same order, the values of `CS(=O)(=O)N[C@H]1CC[C@@]2(Cc3ccc(C(F)(F)F)c(c3)-c3cccc(F)c3OCc3coc2n3)C1` [Example 23, N-[(1′S,14R)-6-fluoro-19-(trifluoromethyl)spiro[8,12-dioxa-21-azatetracyclo[14.3.1.110,13.02,7]henicosa-1(19),2,4,6,10,13(21),16(20),17-octaene-14,3′-cyclopentane]-1′-yl]methanesulfonamide] are 1.3 nM and 98%.
In the same order, the values of `CS(=O)(=O)N[C@H]1CC[C@@]2(Cc3ccc(C(F)(F)F)c(c3)-c3ccccc3OCc3coc2n3)C1` [Example 24, N-[(1′S,14R)-19-(trifluoromethyl)spiro[8,12-dioxa-21-azatetracyclo[14.3.1.110,13.02,7]henicosa-1(19),2,4,6,10,13(21),16(20),17-octaene-14,3′-cyclopentane]-1′-yl]methanesulfonamide] are 5.2 nM and 98%.
As to `Cc1oc2nc1COc1ccccc1-c1cc(ccc1F)C[C@@]21CC[C@H](NS(C)(=O)=O)C1` [Example 26, N-[(1′S,14R)-19-fluoro-11-methyl-spiro[8,12-dioxa-21-azatetracyclo[14.3.1.110,13.02,7]henicosa-1(19),2,4,6,10,13(21),16(20),17-octaene-14,3′-cyclopentane]-1′-yl]methanesulfonamide], the EC50 amounted to 0.19 nM and the Emax was found to be 95%.
As for `CS(=O)(=O)N[C@H]1CC[C@@]2(Cc3cc(ccc3F)-c3c(F)ccc(F)c3OCc3coc2n3)C1` [Example 27, N-[(1′S,14R)-3,6,17-trifluorospiro[8,12-dioxa-21-azatetracyclo[14.3.1.110,13.02,7]henicosa-1(20),2,4,6,10,13(21),16,18-octaene-14,3′-cyclopentane]-1′-yl]methanesulfonamide], the EC50 worked out at 0.65 nM and the Emax was 100%.
Regarding `CS(=O)(=O)N[C@H]1CC[C@@]2(Cc3cc(ccc3F)-c3ccc(F)c(F)c3OCc3coc2n3)C1` [Example 28, N-[(1′S,14R)-5,6,17-trifluorospiro[8,12-dioxa-21-azatetracyclo[14.3.1.110,13.02,7]henicosa-1(19),2,4,6,10,13(21),16(20),17-octaene-14,3′-cyclopentane]-1′-yl]methanesulfonamide], the EC50 is 6 nM and the Emax came to 99%.
For `CS(=O)(=O)N[C@H]1CC[C@@]2(Cc3cc(ccc3F)-c3cccc(Cl)c3OCc3coc2n3)C1` [Example 29, N-[(1′S,14R)-6-chloro-17-fluoro-spiro[8,12-dioxa-21-azatetracyclo[14.3.1.110,13.02,7]henicosa-1(19),2,4,6,10,13(21),16(20),17-octaene-14,3′-cyclopentane]-1′-yl]methanesulfonamide], the EC50 is 2 nM and the Emax amounted to 98%.
On the same counts, the results for `CS(=O)(=O)N[C@H]1CC[C@@]2(Cc3ccc(Cl)c(c3)-c3ccc(F)c(F)c3OCc3coc2n3)C1` [Example 31, N-[(1′S,14R)-19-chloro-5,6-difluoro-spiro[8,12-dioxa-21-azatetracyclo[14.3.1.110,13.02,7]henicosa-1(19),2,4,6,10,13(21),16(20),17-octaene-14,3′-cyclopentane]-1′-yl]methanesulfonamide] are 0.48 nM and 96%.
For the compound `CS(=O)(=O)N[C@H]1CC[C@@]2(Cc3cc(c(F)cc3Cl)-c3cccc(F)c3OCc3coc2n3)C1` [Example 32, N-[(1′S,14R)-17-chloro-6,19-difluoro-spiro[8,12-dioxa-21-azatetracyclo[14.3.1.110,13.02,7]henicosa-1(19),2,4,6,10,13(21),16(20),17-octaene-14,3′-cyclopentane]-1′-yl]methanesulfonamide], the EC50 was 0.28 nM and the maximal response (Emax) came to 98%.
